Here are results for 5 compounds from publication PMC8762671 (Chemical research in toxicology, 2021).

In experiment [1] the test system is human iPSC-derived cardiomyocytes. In words: Ca2+ flux assay. Particulars: for critical endpoint (most sensitive phenotype): phenotype with lowest POD for the population median. Format: cell-based.
Experiment [2] shares this test system. The note with it: standard donor 1434 compared to the other 4 donors; ref [36]; cited from earlier work.

For `CC(C)NCC(O)COc1cccc2ccccc12` (centres unmarked) [propranolol], in experiment [1] (0.5 μM, 90 min exposure, 5 donors, response vs vehicle control), the “effect on beat rate ([-] chronotropy positive control)” value is “expected effects on beat rate”.

For `CC/C(=C(\c1ccccc1)c1ccc(OCCN(C)C)cc1)c1ccccc1` [tamoxifen], the “critical endpoint (most sensitive phenotype)” value in experiment [1] was “did not exhibit decay-rise ratio as the critical endpoint”.

As to `COCCc1ccc(OCC(O)CNC(C)C)cc1` (centres unmarked) [metoprolol], the “critical endpoint (most sensitive phenotype)” value in experiment [1] is on record as “did not exhibit decay-rise ratio as the critical endpoint”.

Take `CC(C)NCC(O)c1ccc(O)c(O)c1` (centres unmarked) [Isoproterenol]: in experiment [1] (10 μM, 90 min exposure, 5 donors, response vs vehicle control), the “effect on beat rate ([+] chronotropy positive control)” value is recorded as “expected effects on beat rate”.

For `COc1cc(N)c(Cl)cc1C(=O)NC1CCN(CCCOc2ccc(F)cc2)CC1OC` (centres unmarked) [Cisapride, cisapride], the “efficacy (Emax, maximum increase in decay-rise ratio)” value in experiment [2] is given as “greatest efficacy”.
